Measured values: patent publication US12409206B2, “Use of cyclosporine analogues for treating fibrosis” (Hepion Pharmaceuticals, Inc., priority 2020, dated 2025)

Tests used:
[1] = system: human precision cut liver slices (PCLS); assay: PCLS RNA-Seq, Nonstimulation Protocol: Non-stimulated+CRV vs Non-stimulated+Vehicle; format: cell-based; conditions: for log2FoldChange: Non-stimulated+CRV vs Non-stimulated+Vehicle; for fold change in RNA: absence of TGFβ+PDGF-BB, universal in all donors
Experimental: PCLS were obtained from 5 human donors who underwent resection of liver cancer. Replicate slices were collected from healthy margins of the resections and cultured for 4 or 6 days depending on the experimental protocol. In the Nonstimulation Protocol slices were cultured for 6 days and treated for the entire period with DMSO vehicle or 5 μM CRV431. In the Stimulation Protocol slices were rested for 1 day and then administered the cytokines, TGFβ and PDGF-BB, for 3 days to stimulate inflammation and fibrosis. DMSO vehicle, CRV431 (1 and 5 μM), Alk5i (10 μM), obeticholic acid (5 μM), elafibranor (5 μM), resmetirom ([…]), and Aramchol (5 μM) were administered individually as drug treatments in the Stimulation Protocol concurrent with TGFβ+PDGF-BB. Culture medium treatments were replaced daily.
Four types of evaluations were conducted on the PCLS: (a) secretion of inflammation and fibrosis biomarkers into the culture medium, (b) histological staining and quantitation of Sirius red as a measure of tissue fibrosis, (c) gene expression of inflammation and fibrosis biomarkers by RT-PCR, and (d) RNA sequencing (RNA-Seq) of the complete transcriptome. Each of the four types of evaluation is described below: • (a) Biomarker secretion. Spent culture medium was collected daily from duplicate slices for each treatment. ELISAs were used to quantify secretion of monocyte chemoattractant protein (MCP-1), interleukin-6 (IL-6), tissue inhibitor of metalloproteinase-1 (TIMP1), hyaluronic acid, fibronectin, and collagen 1α1. For each donor the mean level of biomarker secretion in each treatment group was expressed as a percentage change relative to DMSO vehicle, the percentages averaged for all donors, and finally the mean daily percentage change calculated from all days of evaluation. Results are shown in FIG. 8A (secreted markers-% daily average change). • (b) Sirius red histological staining. […] Sirius red was quantified morphometrically in the histological sections as the percentage area with Sirius red staining in 10 sections from each treatment. In the Nonstimulation Protocol the quantity of Sirius red staining was expressed relative to the vehicle group. In the Stimulation Protocol the quantity of Sirius red staining was expressed relative to nonstimulated PCLS (0%) and TGFβ+PDGF-BB-stimulated+vehicle PCLS (100%). Results are shown in FIG. 8B (Sirius red staining for tissue fibrosis). • (c) Gene expression by RT-PCR. RNA was isolated from duplicate liver slices per treatment at the end of the experiments and evaluated by RT-PCR for 5 markers of inflammation and fibrosis: MCP-1, IL-6, TIMP1, αSMA, and collagen 1α1. β actin was used as a reference gene to calculate relative levels of each target gene RNA. […] Results are shown in FIG. 8C (gene expression by RT-PCR). • (d) Gene expression by RNA-Seq. RNA sequencing of the complete transcriptome (30 million reads per sample) was conducted on vehicle and 5 μM CRV431 treatment groups from 3 donors both from the Nonstimulation and Stimulation Protocols. Data were analyzed by bioinformatics software programs to identify genes that were differentially expressed between vehicle and CRV431 treatments.
For the evaluation done for (d), 12 samples corresponding to 3 different donor slides which underwent 4 different treatments were studied. the comparisons carried out in this analysis are: (1) TGFb/PDGF+CRV vs TGFb/PDGF+Vehicle (V), and (2) Non-stimulated+CRV vs Non-stimulated+Vehicle. […] Table 1. Samples for evaluation (d)
Quality Control check was performed in all samples. All samples had more than 30 million reads and a quality score average >35 for almost all the bases in the sequences. The duplication levels are expected as it is RNA sequencing, and different copies of the same RNA are expected to be present in the samples. All samples had good amount of reads and quality, therefore all samples passed the QC checked and were included in the analysis. […]

[2] = system: Human adult dermal fibroblasts; assay: Procollagen and fibronectin ELISA of spent medium, dermal fibroblast culture; format: cell-based; conditions: medium from Day 1-2 of treatment, in the absence or presence of 10 ng/ml EGF or 0.4 ng/ml TGFβ
Experimental: Human adult dermal fibroblasts (Lonza Bioscience, Cat. #CC-2511) were cultured in 96-well plates. Treatments were applied in triplicate wells (applied 100 ul treatments per well) for 1 day, then re-applied for one additional day. Cells were near confluence at the start of treatments. […] Spent culture medium collected from Day 1-2 of treatment was assayed for procollagen and fibronectin by enzyme-linked immunosorbent assays (ELISA) (Procollagen ELISA antibody pair (ab216064) and fibronectin ELISA antibody pair (ab222262) from Abcam). Procollagen and fibronectin were not detected in medium not applied to cells. Procollagen and fibronectin levels in the medium are represented by means±SD (bars) from 3 replicate wells (open circles). […].

[3] = system: Human adult dermal fibroblasts; assay: Cell viability analysis, dermal fibroblast culture; format: cell-based; conditions: end of 4 days of treatment (so in the source)
[4] = system: five different types of fibroblasts; assay: Cell viability, summary over five types of fibroblasts; format: cell-based, Human; conditions: at clinically relevant concentrations
[5] = system: human precision cut IPF lung slices; assay: Gene expression (RT-PCR) in precision cut IPF lung slices in culture; format: cell-based; conditions: CRV431 applied at 5 μM; Day 6 of culture after 4 days of treatment; β actin reference
Experimental: This example describes a study conducted with precision cut lung slices. Precision cut slices from explanted lung tissue from a patient with biopsy-confirmed, idiopathic pulmonary fibrosis (IPF) were cultured for 6 days. Treatments were applied to 6 replicate slices per treatment on Day 2 of culture and replaced daily on Days 3, 4, and 5 of culture.
For generating the results of gene expression shown in FIG. 6B, RNA was isolated from 6 pooled lung slices per treatment on Day 6 of culture following 4 days of drug or vehicle treatment and evaluated by reverse transcription-polymerase chain reaction (RT-PCR) for 6 markers of inflammation and fibrosis: MCP-1, IL-6, TGFβ TIMP1, collagen 1α1, and α-smooth muscle actin (αSMA). β actin was used as a reference gene to calculate relative levels of each target gene RNA.

[6] = system: human precision cut liver slices (PCLS); assay: PCLS RNA-Seq, general statements (protocol not stated); format: cell-based
Experimental: PCLS were obtained from 5 human donors who underwent resection of liver cancer. Replicate slices were collected from healthy margins of the resections and cultured for 4 or 6 days depending on the experimental protocol. In the Nonstimulation Protocol slices were cultured for 6 days and treated for the entire period with DMSO vehicle or 5 μM CRV431. In the Stimulation Protocol slices were rested for 1 day and then administered the cytokines, TGFβ and PDGF-BB, for 3 days to stimulate inflammation and fibrosis. […]
Four types of evaluations were conducted on the PCLS: (a) secretion of inflammation and fibrosis biomarkers into the culture medium, (b) histological staining and quantitation of Sirius red as a measure of tissue fibrosis, (c) gene expression of inflammation and fibrosis biomarkers by RT-PCR, and (d) RNA sequencing (RNA-Seq) of the complete transcriptome. […] ELISAs were used to quantify secretion of monocyte chemoattractant protein (MCP-1), interleukin-6 (IL-6), tissue inhibitor of metalloproteinase-1 (TIMP1), hyaluronic acid, fibronectin, and collagen 1α1. For each donor the mean level of biomarker secretion in each treatment group was expressed as a percentage change relative to DMSO vehicle, the percentages averaged for all donors, and finally the mean daily percentage change calculated from all days of evaluation. […]

## CC[C@@H]1NC(=O)[C@H]([C@H](O)[C@H](C)CCCCCCNC(C)=O)N(C)C(=O)[C@H](C(C)C)N(C)C(=O)[C@H](CC(C)C)N(C)C(=O)[C@H](CC(C)C)N(C)C(=O)[C@@H](C)NC(=O)[C@H](C)NC(=O)[C@H](CC(C)C)N(C)C(=O)[C@H](C(C)C)NC(=O)[C@H](CC(C)C)N(C)C(=O)[C@@H](C)N(C)C1=O [CRV431]
[1]; gene ACOT9
  log2FoldChange: 0.543
[1]; gene AP003119.3
  log2FoldChange: −0.67
[1]; gene AREG
  log2FoldChange: 1.034
[1]; gene CCDC149
  log2FoldChange: 0.76
[1]; gene CDH11
  log2FoldChange: −0.915
[1]; gene CXCL12
  log2FoldChange: 0.623
[1]; gene CYP24A1
  log2FoldChange: −1.499
[1]; gene DDX60
  log2FoldChange: −0.739
[1]; gene DKK1
  fold change in RNA: +3.8 fold
[1]; gene DNAJB9
  log2FoldChange: 0.721
[1]; gene ESM1
  fold change in RNA: −2.2 fold
[1]; gene GDPD5
  log2FoldChange: −0.606
[1]; gene GMPPA
  log2FoldChange: 0.768
[1]; gene IFI44L
  fold change in RNA: −4.8 fold
[1]; gene KRT7
  log2FoldChange: 0.563
[1]; gene MPEG1
  log2FoldChange: 0.584
[1]; gene MS4A4A
  log2FoldChange: 0.735
[1]; gene NCOA3
  log2FoldChange: −1.438
  fold change in RNA: −2.7 fold
[1]; gene NREP
  log2FoldChange: −0.638
[1]; gene NUCB2
  log2FoldChange: 0.851
[1]; gene NUMA1
  log2FoldChange: −0.537
[1]; gene PGM3
  log2FoldChange: 0.751
[1]; gene POU2F2
  log2FoldChange: 2.856
[1]; gene SERPINB2
  log2FoldChange: 1.255
[1]; gene SNHG3
  log2FoldChange: 0.665
[1]; gene SOWAHC
  log2FoldChange: −0.601
[1]; gene SRGAP2B
  log2FoldChange: −0.729
[1]; gene mIR-194-2
  fold change in RNA: −7.9 fold
[2]
  abundance of fibronectin in the medium: dose-dependently decreased
  abundance of procollagen in the medium: dose-dependently decreased
[3]
  cell viability: none of the CRV431 treatments affected cell viability
[4]
  cell viability: without causing any reduction in cell viability
[5]
  gene expression of all markers (MCP-1, IL-6, TGFβ, TIMP1, collagen 1α1, αSMA): decreased
[6]
  expression of many fibrosis-related genes (more than 10 collagen genes, collagen hydroxylases and oxidases, ACTA2, VEGF, TIMPs): decreased expression
